From patent US12029818B2 (CRITITECH, INC., priority 2020, dated 2024)

How the values were obtained:
[1] = Specific surface area by BET sorptometry
Method: SSA determination analyses were conducted on a Porous Materials, Inc., Automated BET Sorptometer BET-202A according to manufacturer's instructions.

[2] = Shake-flask solubility in organic solvent/water mixtures; type: physicochemical; conditions: methanol and ethanol in water
Method: The drug was added in excess to each solution prepared in duplicate.

[3] = Particle size distribution (PSD) by laser diffraction, Malvern Mastersizer 3000; type: physicochemical
Method: PSD analyses were conducted on a Malvern Mastersizer™ 3000 using the Aero S™ dispersion unit according to manufacturer's instructions.

[4] = PXRD solid form and 14 day room temperature stability study

- SSA ([1]; listed as Lapatinib Raw): 2.33 m^2/g
- SSA ([1]; listed as unprocessed material): 1.60 m^2/g
- Solubility dependence on organic solvent concentration [2]: concentration dependent solubility
- PSD: Volume Dv-10 [3]: 0.839 μm
- PSD: Volume Dv-50 [3]: 6.59 μm
- PSD: Volume Dv-90 [3]: 335 μm
- Crystalline/amorphous form by PXRD [4]: crystalline
Structure (SMILES): CS(=O)(=O)CCNCc1ccc(-c2ccc3ncnc(Nc4ccc(OCc5cccc(F)c5)c(Cl)c4)c3c2)o1 [Lapatinib, N-(3-chloro-4-{[(3-fluorophenyl)methyl]oxy}phenyl)-6-[5-({[2-(methylsulfonyl)ethyl]amino}methyl)-2-furanyl]-4-quinazolinamine]
